Assay results published in US9428519B2, “Acylated derivative of homoharringtonine, preparation method therefor, and application thereof” (HANGZHOU BENSHENG PHARMACEUTICAL CO., LTD., priority 2011, dated 2016).
In brackets after ≈: the same amount, converted by molar mass. Entries after “also recorded” stand apart in the source; their conditions may differ.

How the values were obtained:
[1] = system: H9 (acute lymphoblastic leukemia, ALL); assay: MTT growth inhibition of leukemia cells, 72 h; type: cell-based, human
How it was run: (§1)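 Each well received 6000 cells in serum-supplemented (10% FBS) 1640 medium plus compound at varied concentrations. After 72 h incubation at 37 °C, 5% CO2, viable cell concentration was determined by MTT and the 72 h IC50 derived.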

[2] = system: Kasumi-1 (acute myeloid leukemia M2 type, AML-M2); assay: MTT growth inhibition of leukemia cells, 72 h; type: cell-based, human
How it was run: as §1

[3] = system: K562/adr (drug-resistant, chronic myeloid leukemia, CML); assay: MTT growth inhibition of leukemia cells, 72 h; type: cell-based, human
How it was run: as §1

[4] = system: Jurkat (acute lymphoblastic leukemia, ALL); assay: MTT growth inhibition of leukemia cells, 72 h; type: cell-based, human; conditions: Homo sapiens, Jurkat
How it was run: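 Growth inhibition of the Jurkat ALL line was measured by MTT after 72 hours of compound exposure at 37° C. under 5% CO2. Wells of a 96-well plate held 6000 cells in 1640 medium plus 10% fetal bovine serum; untreated controls defined 100% viability, and inhibitory concentrations were derived from percent viability.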

[5] = system: NB4 (acute promyelocytic leukemia, AML); assay: MTT growth inhibition of leukemia cells, 72 h; type: cell-based, human
How it was run: as §1

[6] = system: RPMI8226 (multiple myeloma); assay: MTT growth inhibition of multiple myeloma cells, 72 h; type: cell-based, human
How it was run: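 Growth inhibition read by MTT after 72 h compound exposure (37 °C, 5% CO2) of 6000 RPMI8226 cells per well in 1640 medium plus 10% fetal bovine serum. Viability expressed against untreated cells (100%), from which the 72 h IC50 was derived.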

[7] = Body weight and toxicity in tumor-bearing BALB/c-nu nude mice; type: in vivo; conditions: for Weight (g) Final / Weight (g) Initial: 10 days
Description: Animal: BALB/c-nu nude mice, 8 weeks, female, purchased from Shanghai Laboratory Animal Center of Chinese Academy of Sciences, China.
BS-HH-002, wherein BS-HH-002-0.1 indicates a dosage of 0.1 mg/kg each time, BS-HH-002-0.3 indicates a dosage of 0.3 mg/kg each time, BS-HH-002-0.5 indicates a dosage of 0.5 mg/kg each time, and BS-HH-002-1.0 indicates a dosage of 1.0 mg/kg each time.
Under sterile conditions, the above tumor cells in logarithmic growth phase are collected and injected in an amount of 2×10^7/0.2 ml/nude mice (cell viability>95%) into the right subaxillary of the nude mice by subcutaneous injection, thus establishing a BALB/c-nu nude mice model bearing transplanted tumor of gastric cancer. The mice are administered on the third day after the inoculation, wherein the experimental groups are intragastrically administered in an experimentally designed amount, and the negative control group is intragastrically administered with sterile water. Administration takes place at 8:00 for one time a day, at 8:00 and 14:00 for twice a day, and at 8:00, 14:00 and 20:00 with 6-hour intervals for three times day. The administrations are successive for 10 days. The day before administration is Day 0 and the weight and tumor size are determined approximately every 5 days to produce a plot on weight and tumor growth. On Day 27, the mice are dissected and the tumors are taken out and weighed. Based on a tumor inhibition rate of zero for the control group, the tumor inhibition rate (%) after the effect of the medicament is calculated.
(§2) The values determined are presented as mean±standard error (M±SD). The experimental data for each group are analyzed by the One-way ANOVA method of SPSS 18.0 Statistical Software, and p<0.05 is deemed as having statistically significant difference.

[8] = Body weight and toxicity in tumor-bearing NOD/SCID mice; type: in vivo; conditions: for Weight (g) Final / Weight (g) Initial: three times a day, 10 days; for Weight (g) Initial: initial (Day 0)
Description: Animal: NOD/SCID mice (multiple immunodeficiency mice), 8 weeks, female, purchased from Shanghai Laboratory Animal Center of Chinese Academy of Sciences, China.
BS-HH-002, wherein BS-HH-002-0.1 indicates a dosage of 0.1 mg/kg each time, and BS-HH-002-0.3 indicates a dosage of 0.3 mg/kg each time.
Under sterile conditions, the above tumor cells in the logarithmic growth phase are collected and injected in an amount of 5×10^7/0.2 ml/mice (cell viability>95%) by subcutaneous injection into the right subaxillary of NOD/SCID mice, thus establishing an NOD/SCID mice model bearing transplanted tumor of leukemia. The mice are administered on the third day after the inoculation, wherein the experimental groups are intragastrically administered in an experimentally designed amount and the negative control group is intragastrically administered with sterile water. Each mouse is intragastrically administered three times a day in 0.4 ml each time, at 8:00, 14:00 and 20:00 with 6-hour intervals, and is successively administered for 10 days. The day before administration is Day 0 and the weight and tumor size are determined approximately every 5 days to produce a dynamic plot on weight and tumor growth. On Day 31, the mice are dissected and the tumors are taken out and weighed. The tumor inhibition rate (%) after the application of medicament is determined based on the tumor inhibition rate of the control group being zero.
as §2

[9] = 0.1 mg/kg/time, 1 time/day intragastric
[10] = 0.1 mg/kg/time, 2 times/day intragastric
[11] = 0.1 mg/kg/time, 3 times/day intragastric
[12] = 0.3 mg/kg/time, 1 time/day intragastric
[13] = 0.5 mg/kg/time, 1 time/day intragastric
[14] = 0.5 mg/kg/time, 2 times/day intragastric
[15] = 0.5 mg/kg/time, 3 times/day intragastric
[16] = 1.0 mg/kg/time, 1 time/day intragastric
[17] = 1.0 mg/kg/time, 3 times/day intragastric

## COC(=O)C[C@](O)(CCCC(C)(C)OC(C)=O)C(=O)O[C@@H]1C(OC)=C[C@]23CCCN2CCc2cc4c(cc2[C@H]13)OCO4 [BS-HH-002, 6-acetylhomoharringtonine]
[1]; Homo sapiens, MTT
  IC50: 4 ng/mL (≈ 0.00681 µM)
  IC90: 10 ng/mL (≈ 0.017 µM)
[1]; vs HHT
  improvement of anti-H9 activity compared with homoharringtonine: more than 5 fold
[2]; Homo sapiens, Kasumi 1, MTT
  IC50: 2 ng/mL (≈ 0.0034 µM)
  IC90: 7 ng/mL (≈ 0.0119 µM)
[2]; vs HHT
  improvement of anti-Kasumi-1 activity compared with homoharringtonine: more than 3.4 fold
[3]; Homo sapiens, K562/Adr, MTT
  IC50: 15 ng/mL (≈ 0.0255 µM)
  IC90: 310 ng/mL (≈ 0.528 µM)
[3]; vs HHT
  improvement of anti-K562/adr activity compared with homoharringtonine: more than 3.2 fold
[4]
  IC50: 3 ng/mL (≈ 0.0051 µM)
  IC90: ≥ 16000 ng/mL
[5]; Homo sapiens, MTT
  IC50: 2 ng/mL (≈ 0.0034 µM)
  IC90: 6 ng/mL (≈ 0.0102 µM)
[5]; vs HHT
  improvement of anti-NB4 activity compared with homoharringtonine: more than 3 fold
[6]
  anti-RPMI8226 (multiple myeloma) effectiveness: particularly effective
[6]; Homo sapiens, RPMI-8226, MTT
  IC50: 3 ng/mL (≈ 0.0051 µM)
  IC90: 18 ng/mL (≈ 0.0306 µM)
[7]; [9]
  Weight (g) Final: 27.18 ± 3.62 g
  Weight (g) Initial: 18.88 ± 0.56 g
[7]; [10]
  Weight (g) Final: 25.63 ± 1.06 g
  Weight (g) Initial: 21.35 ± 0.34 g
[7]; [11]
  Weight (g) Final: 28.50 ± 2.83 g
  Weight (g) Initial: 24.58 ± 0.39 g
[7]; [12]
  Weight (g) Final: 24.30 ± 1.38 g
  Weight (g) Initial: 18.98 ± 0.51 g
[7]; [13]
  Weight (g) Final: 25.78 ± 1.15 g
  Weight (g) Initial: 20.10 ± 0.22 g
[7]; [14]
  Weight (g) Final: 26.68 ± 1.42 g
  Weight (g) Initial: 22.28 ± 0.43 g
[7]; [15]
  Weight (g) Final: 26.33 ± 2.76 g
  Weight (g) Initial: 23.50 ± 0.37 g
[7]; [16]
  Weight (g) Final: 25.95 ± 0.94 g
  Weight (g) Initial: 20.45 ± 0.76 g
[7]; [17]
  Weight (g) Final: 29.98 ± 1.32 g
  Weight (g) Initial: 26.98 ± 0.75 g
[7]; all dosages 0.1-1.0 mg/kg
  toxic and side effect: none of the dosages causes obvious toxic and side effect
[7]; all groups, until Day 27
  animal deaths until dissection: none of the animals has died
[8]; 0.1 mg/kg/time intragastric
  Weight (g) Final: 26.7 ± 1.92 g
  Weight (g) Initial: 21.48 ± 0.05 g
[8]; 0.3 mg/kg/time intragastric
  Weight (g) Final: 27.45 ± 2.48 g
  Weight (g) Initial: 22.45 ± 0.13 g
[8]; 0.1 and 0.3 mg/kg each time
  toxic or side effect: does not have any obvious toxic or side effect; also recorded: does not demonstrate an obvious toxicity
[8]; initial vs final weight
  impact on animal weight: does not have substantial impact on animal weight
